# Columns and labels:
# [1] = system: BT-549; assay: NCI anticancer screen, BT-549; type: cell-based, human; details: BT-549, Breast, 48 h
# [2] = system: RXF 393; assay: NCI anticancer screen, RXF 393; type: cell-based, human; details: RXF 393, Renal, 48 h
# [3] = system: MCF7; assay: NCI anticancer screen, MCF7; type: cell-based, human; details: MCF7, Breast, 48 h
# [4] = system: MOLT-4; assay: NCI anticancer screen, MOLT-4; type: cell-based, human; details: MOLT-4, Leukemia, 48 h
# [5] = system: SR; assay: NCI anticancer screen, SR; type: cell-based, human; details: Leukemia, 48 h
# [6] = system: HCT-15; assay: NCI anticancer screen, HCT-15; type: cell-based, human; details: HCT-15, Colon, 48 h
# [7] = system: 786-0; assay: NCI anticancer screen, 786-0; type: cell-based, human; details: 786-0, Renal, 48 h
# [8] = system: HOP-92; assay: NCI anticancer screen, HOP-92; type: cell-based, human; details: HOP-92, Non-Small Cell Lung, 48 h
# [9] = system: M14; assay: NCI anticancer screen, M14; type: cell-based, human; details: M14, Melanoma, 48 h
# [10] = system: SF-539; assay: NCI anticancer screen, SF-539; type: cell-based, human; details: SF-539, CNS, 48 h
# [11] = system: COLO 205; assay: NCI anticancer screen, COLO 205; type: cell-based, human; details: COLO 205, Colon, 48 h
# [12] = system: HL-60(TB); assay: NCI anticancer screen, HL-60(TB); type: cell-based, human; details: Leukemia, 48 h
# [13] = system: SF-295; assay: NCI anticancer screen, SF-295; type: cell-based, human; details: SF-295, CNS, 48 h
# [14] = system: SF-268; assay: NCI anticancer screen, SF-268; type: cell-based, human; details: SF-268, CNS, 48 h
# [15] = system: LOX IMVI; assay: NCI anticancer screen, LOX IMVI; type: cell-based, human; details: Melanoma, 48 h
# [16] = system: NCI-H322M; assay: NCI anticancer screen, NCI-H322M; type: cell-based, human; details: Non-Small Cell Lung, 48 h
# [17] = system: NCI-H460; assay: NCI anticancer screen, NCI-H460; type: cell-based, human; details: NCI-H460, Non-Small Cell Lung, 48 h
# [18] = system: UACC-62; assay: NCI anticancer screen, UACC-62; type: cell-based, human; details: UACC-62, Melanoma, 48 h
# [19] = system: HCC-2998; assay: NCI anticancer screen, HCC-2998; type: cell-based, human; details: HCC-2998, Colon, 48 h
# [20] = system: DU-145; assay: NCI anticancer screen, DU-145; type: cell-based, human; details: DU-145, Prostate, 48 h
# [21] = system: HS 578T; assay: NCI anticancer screen, HS 578T; type: cell-based, human; details: Breast, 48 h
# [22] = biological target: T1, wildtype human PAI-1 (Homo sapiens, UniProt P05121); assay: PAI-1/uPA assay (residual uPA activity, fluorescent substrate SpectroFluor); type: biochemical; details: for Conc. of compound required for PAI-1 inhibition (result in words): within the concentration range tested
# T1 construct: purchased Molecular Innovations Lot# HWT-804
# T1 sequence (P05121 24-402): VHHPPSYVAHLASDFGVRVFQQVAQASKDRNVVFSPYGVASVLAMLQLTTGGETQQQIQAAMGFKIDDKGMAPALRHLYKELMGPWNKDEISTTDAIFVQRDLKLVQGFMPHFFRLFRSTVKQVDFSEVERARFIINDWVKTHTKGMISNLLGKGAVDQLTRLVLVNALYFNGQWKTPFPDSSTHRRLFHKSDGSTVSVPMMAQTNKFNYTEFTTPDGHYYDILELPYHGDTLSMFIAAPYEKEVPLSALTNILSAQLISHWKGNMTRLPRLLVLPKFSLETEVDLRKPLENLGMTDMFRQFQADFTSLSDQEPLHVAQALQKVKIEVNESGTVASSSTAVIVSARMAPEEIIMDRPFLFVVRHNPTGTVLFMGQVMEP
# Method in brief: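 Wildtype human PAI-1 (6 nM) preincubated 15-20 min at RT with compound (10 nM to 100 μM final) in HEPES buffer pH 6.6, then with uPA (8 nM, HMW) 5 min. SpectroFluor (0.1 mM) cleavage followed 30 min at 37 °C (ex 360/em 440 nm); PAI-1 activity expressed as % of untreated PAI-1.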
# [23] = system: SW-620; assay: NCI anticancer screen, SW-620; type: cell-based, human; details: SW-620, Colon, 48 h
# [24] = Homo sapiens, read-out: LC50 (the source's name)
smiles,measurement,setting,value
CCOC(=O)c1ccc(CNCc2cc(CN3CCN(c4ccccn4)CC3)c(O)c(OC)c2)cc1 [Compound Q012135T],TGI,[1],30.0 µM
same,GI50,[1]; Homo sapiens,15.5 µM
same,CC50,[1]; [24],58 µM
same,GI50,[2]; Homo sapiens,18.8 µM
same,CC50,[2]; [24],84.5 µM
same,TGI,[2],39.9 µM
same,GI50,[3]; Homo sapiens,16.3 µM
same,CC50,[3]; [24],69.9 µM
same,TGI,[3],33.7 µM
same,GI50,[4]; Homo sapiens,10.1 µM
same,CC50,[4]; [24],10.1 µM
same,TGI,[4],31.3 µM
same,GI50,[5]; Homo sapiens,4.18 µM
same,CC50,[5]; [24],4.18 µM
same,TGI,[5],20.6 µM
same,TGI,[6],>100 µM
same,GI50,[6]; Homo sapiens,26.9 µM
same,CC50,[6]; [24],> 100 µM
same,TGI,[7],31.0 µM
same,GI50,[7]; Homo sapiens,16.2 µM
same,CC50,[7]; [24],59.2 µM
same,TGI,[8],31.8 µM
same,GI50,[8]; Homo sapiens,12.8 µM
same,LC50 (concentration killing 50% of starting cells),[8]; Homo sapiens,79.1 µM
same,GI50,[9]; Homo sapiens,17.2 µM
same,CC50,[9]; [24],64.8 µM
same,TGI,[9],33.4 µM
same,GI50,[10]; Homo sapiens,16 µM
same,CC50,[10]; [24],57.2 µM
same,TGI,[10],30.2 µM
same,TGI,[11],36.3 µM
same,GI50,[11]; Homo sapiens,17 µM
same,CC50,[11]; [24],77.6 µM
same,GI50,[12]; Homo sapiens,13.1 µM
same,CC50,[12]; [24],13.1 µM
same,TGI,[12],33.7 µM
same,GI50,[13]; Homo sapiens,19.6 µM
same,CC50,[13]; [24],73.5 µM
same,TGI,[13],38.0 µM
same,GI50,[14]; Homo sapiens,19.1 µM
same,LC50,[14]; Homo sapiens,71.1 µM
same,TGI,[14],36.9 µM
same,GI50,[15]; Homo sapiens,15.8 µM
same,LC50 (concentration giving 50% net cell kill),[15]; Homo sapiens,63.4 µM
same,TGI,[15],31.7 µM
same,GI50,[16]; Homo sapiens,33.8 µM
same,CC50,[16]; [24],> 100 µM
same,TGI,[16],>100 µM
same,GI50,[17]; Homo sapiens,20.2 µM
same,CC50,[17]; [24],70.4 µM
same,TGI,[17],37.7 µM
same,GI50,[18]; Homo sapiens,20.1 µM
same,CC50,[18]; [24],72.4 µM
same,TGI,[18],38.2 µM
same,TGI,[19],31.6 µM
same,GI50,[19]; Homo sapiens,15.3 µM
same,LC50,[19]; Homo sapiens,65.1 µM
same,TGI,[20],36.5 µM
same,GI50,[20]; Homo sapiens,17 µM
same,CC50,[20]; [24],78.4 µM
same,TGI,[21],41.7 µM
same,GI50,[21]; Homo sapiens,19.1 µM
same,CC50,[21]; [24],90.9 µM
same,Percent PAI-1 inhibition,"[22]; at the concentration given, percent of activity of untreated PAI-1",8
same,Conc. of compound required for PAI-1 inhibition,"[22]; concentration giving the percent inhibition, 6 nM PAI-1, 8 nM uPA",100 µM
same,GI50,[23]; Homo sapiens,18.5 µM
same,CC50,[23]; [24],68 µM
same,TGI,[23],35.5 µM
COc1cc(CNc2ccc(C(=O)OC(C)(C)C)cc2)cc(CN2CCN(c3ccccn3)CC2)c1O [Compound Q012145T],GI50,[1]; Homo sapiens,52.9 µM
same,GI50,[2]; Homo sapiens,80.3 µM
same,GI50,[3]; Homo sapiens,21 µM
same,GI50,[4]; Homo sapiens,13 µM
same,GI50,[5]; Homo sapiens,8.3 µM
same,GI50,[6]; Homo sapiens,46.4 µM
same,GI50,[7]; Homo sapiens,48.6 µM
same,GI50,[8]; Homo sapiens,6.57 µM
same,GI50,[9]; Homo sapiens,83.3 µM
same,GI50,[10]; Homo sapiens,> 100 µM
same,GI50,[11]; Homo sapiens,24.8 µM
same,GI50,[12]; Homo sapiens,12.4 µM
same,GI50,[13]; Homo sapiens,69.9 µM
same,GI50,[14]; Homo sapiens,61.5 µM
same,GI50,[15]; Homo sapiens,60.4 µM
same,GI50,[16]; Homo sapiens,> 100 µM
same,GI50,[17]; Homo sapiens,21.9 µM
same,GI50,[18]; Homo sapiens,74.5 µM
same,GI50,[19]; Homo sapiens,> 100 µM
same,GI50,[20]; Homo sapiens,> 100 µM
same,GI50,[21]; Homo sapiens,> 100 µM
same,Conc. of compound required for PAI-1 inhibition (result in words),[22],No inhibition
same,GI50,[23]; Homo sapiens,63.7 µM
CCOC(=O)[C@H](Cc1ccccc1)NCc1cc(CN2CCN(c3ccccn3)CC2)c(O)c(OC)c1 [Compound Q012147T],GI50,[1]; Homo sapiens,67.5 µM
same,GI50,[2]; Homo sapiens,76.5 µM
same,GI50,[3]; Homo sapiens,88.8 µM
same,GI50,[4]; Homo sapiens,3.13 µM
same,GI50,[5]; Homo sapiens,0.32 µM
same,GI50,[6]; Homo sapiens,98.3 µM
same,GI50,[7]; Homo sapiens,60.2 µM
same,GI50,[8]; Homo sapiens,24.8 µM
same,GI50,[9]; Homo sapiens,99 µM
same,GI50,[10]; Homo sapiens,73.4 µM
same,GI50,[11]; Homo sapiens,> 100 µM
same,GI50,[12]; Homo sapiens,37.5 µM
same,GI50,[13]; Homo sapiens,> 100 µM
same,GI50,[14]; Homo sapiens,> 100 µM
same,GI50,[15]; Homo sapiens,> 100 µM
same,GI50,[16]; Homo sapiens,49.4 µM
same,GI50,[17]; Homo sapiens,60.6 µM
same,GI50,[18]; Homo sapiens,> 100 µM
same,GI50,[19]; Homo sapiens,> 100 µM
same,GI50,[20]; Homo sapiens,> 100 µM
same,GI50,[21]; Homo sapiens,48.3 µM
same,Conc. of compound required for PAI-1 inhibition (result in words),[22],No inhibition
same,GI50,[23]; Homo sapiens,> 100 µM
